#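 In this assay, cells in 96-well plates receive the compound at five concentrations for 48 hours. Endpoints are linearly interpolated between the surrounding concentrations. TGI is the concentration that stops growth completely.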
# Legend:
# Experiment in all cases: NCI-60 cell line screen, 48 h
# RPMI-8226 leukemia = test system: RPMI-8226 leukemia
# SK-OV-3 ovarian = test system: SK-OV-3 ovarian
# SF-268 CNS = test system: SF-268 CNS
# HT29 colon = test system: HT29 colon
# HS 578T breast = test system: HS 578T breast
# SR leukemia = test system: SR leukemia
# RXF 393 renal = test system: RXF 393 renal
# NCI-H23 lung = test system: NCI-H23 lung
# A549 NSCLC = test system: A549 NSCLC
# OVCAR-8 ovarian = test system: OVCAR-8 ovarian
# PC-3 prostate = test system: PC-3 prostate
# NCI-H522 lung = test system: NCI-H522 lung
# SN12C renal = test system: SN12C renal
# HOP-92 NSCLC = test system: HOP-92 NSCLC
# MOLT-4 leukemia = test system: MOLT-4 leukemia
# MCF7 breast = test system: MCF7 breast
# T-47D breast = test system: T-47D breast
# U251 CNS = test system: U251 CNS
# A498 renal = test system: A498 renal
# HL-60(TB) leukemia = test system: HL-60(TB) leukemia
# LOX IMVI melanoma = test system: LOX IMVI melanoma
# COLO 205 colon = test system: COLO 205 colon
# DU-145 prostate = test system: DU-145 prostate
# OVCAR-3 ovarian = test system: OVCAR-3 ovarian
# UACC-62 melanoma = test system: UACC-62 melanoma
# SW-620 colon = test system: SW-620 colon
# UACC-257 melanoma = test system: UACC-257 melanoma
# NCI-H226 lung = test system: NCI-H226 lung
# SNB-75 CNS = test system: SNB-75 CNS
# EKVX NSCLC = test system: EKVX NSCLC
# NCI/ADR-RES ovarian = test system: NCI/ADR-RES ovarian
# CCRF-CEM leukemia = test system: CCRF-CEM leukemia
# SK-MEL-28 melanoma = test system: SK-MEL-28 melanoma
# KM12 colon = test system: KM12 colon
# UO-31 renal = test system: UO-31 renal
# MDA-MB-231 breast = test system: MDA-MB-231 breast
# HOP-62 NSCLC = test system: HOP-62 NSCLC
# SF-539 CNS = test system: SF-539 CNS
# SK-MEL-5 melanoma = test system: SK-MEL-5 melanoma
# SK-MEL-2 melanoma = test system: SK-MEL-2 melanoma
# ACHN renal = test system: ACHN renal
# SNB-19 CNS = test system: SNB-19 CNS
# HCT-116 colon = test system: HCT-116 colon
# MALME-3M melanoma = test system: MALME-3M melanoma
# TK-10 renal = test system: TK-10 renal
# MDA-MB-435 = test system: MDA-MB-435
# NCI-H460 lung = test system: NCI-H460 lung
# HCT-15 colon = test system: HCT-15 colon
# HCC-2998 colon = test system: HCC-2998 colon
# OVCAR-4 ovarian = test system: OVCAR-4 ovarian
# 786-0 renal = test system: 786-0 renal
# K-562 leukemia = test system: K-562 leukemia
# OVCAR-5 ovarian = test system: OVCAR-5 ovarian
# IGROV1 ovarian = test system: IGROV1 ovarian
# CAKI-1 renal = test system: CAKI-1 renal
# SF-295 CNS = test system: SF-295 CNS
# M14 melanoma = test system: M14 melanoma
# MDA-N = test system: MDA-N
compound,measurement,setting,value
CCN(CC)CC1CCCCN1CC(=O)N1c2ccccc2NC(=O)c2ccccc21 (stereo unspecified),TGI,RPMI-8226 leukemia,> 100 µM
same,TGI,SK-OV-3 ovarian,> 100 µM
same,TGI,SF-268 CNS,> 100 µM
same,TGI,HT29 colon,> 100 µM
same,TGI,HS 578T breast,> 100 µM
same,TGI,SR leukemia,> 100 µM
same,TGI,RXF 393 renal,> 100 µM
same,TGI,NCI-H23 lung,> 100 µM
same,TGI,A549 NSCLC,> 100 µM
same,TGI,OVCAR-8 ovarian,> 100 µM
same,TGI,PC-3 prostate,> 100 µM
same,TGI,NCI-H522 lung,> 100 µM
same,TGI,SN12C renal,> 100 µM
same,TGI,HOP-92 NSCLC,> 100 µM
same,TGI,MOLT-4 leukemia,> 100 µM
same,TGI,MCF7 breast,> 100 µM
same,TGI,T-47D breast,> 100 µM
same,TGI,U251 CNS,> 100 µM
same,TGI,A498 renal,> 100 µM
same,TGI,HL-60(TB) leukemia,> 100 µM
same,TGI,LOX IMVI melanoma,> 100 µM
same,TGI,COLO 205 colon,> 100 µM
same,TGI,DU-145 prostate,> 100 µM
same,TGI,OVCAR-3 ovarian,> 100 µM
same,TGI,UACC-62 melanoma,> 100 µM
same,TGI,SW-620 colon,> 100 µM
same,TGI,UACC-257 melanoma,> 100 µM
same,TGI,NCI-H226 lung,> 100 µM
same,TGI,SNB-75 CNS,> 100 µM
same,TGI,EKVX NSCLC,> 100 µM
same,TGI,NCI/ADR-RES ovarian,> 100 µM
same,TGI,CCRF-CEM leukemia,> 100 µM
same,TGI,SK-MEL-28 melanoma,> 100 µM
same,TGI,KM12 colon,> 100 µM
same,TGI,UO-31 renal,44.5 µM
same,TGI,MDA-MB-231 breast,> 100 µM
same,TGI,HOP-62 NSCLC,> 100 µM
same,TGI,SF-539 CNS,> 100 µM
same,TGI,SK-MEL-5 melanoma,> 100 µM
same,TGI,SK-MEL-2 melanoma,> 100 µM
same,TGI,ACHN renal,> 100 µM
same,TGI,SNB-19 CNS,> 100 µM
same,TGI,HCT-116 colon,> 100 µM
same,TGI,MALME-3M melanoma,> 100 µM
same,TGI,TK-10 renal,> 100 µM
same,TGI,MDA-MB-435,> 100 µM
same,TGI,NCI-H460 lung,> 100 µM
same,TGI,HCT-15 colon,> 100 µM
same,TGI,HCC-2998 colon,> 100 µM
same,TGI,OVCAR-4 ovarian,> 100 µM
same,TGI,786-0 renal,> 100 µM
same,TGI,K-562 leukemia,> 100 µM
same,TGI,OVCAR-5 ovarian,> 100 µM
same,TGI,IGROV1 ovarian,> 100 µM
same,TGI,CAKI-1 renal,> 100 µM
same,TGI,SF-295 CNS,> 100 µM
same,TGI,M14 melanoma,> 100 µM
same,TGI,MDA-N,> 100 µM
CC(CO)CCNc1ncnc2c1ncn2CCC#N (stereo unspecified),TGI,RPMI-8226 leukemia,> 100 µM
same,TGI,SK-OV-3 ovarian,> 100 µM
same,TGI,SF-268 CNS,> 100 µM
same,TGI,HT29 colon,> 100 µM
same,TGI,HS 578T breast,> 100 µM
same,TGI,SR leukemia,> 100 µM
same,TGI,RXF 393 renal,> 100 µM
same,TGI,NCI-H23 lung,> 100 µM
same,TGI,A549 NSCLC,> 100 µM
same,TGI,OVCAR-8 ovarian,> 100 µM
same,TGI,PC-3 prostate,> 100 µM
same,TGI,NCI-H522 lung,> 100 µM
same,TGI,SN12C renal,> 100 µM
same,TGI,HOP-92 NSCLC,> 100 µM
same,TGI,MOLT-4 leukemia,> 100 µM
same,TGI,MCF7 breast,> 100 µM
same,TGI,T-47D breast,> 100 µM
same,TGI,A498 renal,> 100 µM
same,TGI,HL-60(TB) leukemia,> 100 µM
same,TGI,LOX IMVI melanoma,> 100 µM
same,TGI,COLO 205 colon,> 100 µM
same,TGI,DU-145 prostate,> 100 µM
same,TGI,OVCAR-3 ovarian,> 100 µM
same,TGI,UACC-62 melanoma,> 100 µM
same,TGI,SW-620 colon,> 100 µM
same,TGI,UACC-257 melanoma,> 100 µM
same,TGI,NCI-H226 lung,> 100 µM
same,TGI,SNB-75 CNS,> 100 µM
same,TGI,EKVX NSCLC,> 100 µM
same,TGI,NCI/ADR-RES ovarian,> 100 µM
same,TGI,CCRF-CEM leukemia,> 100 µM
same,TGI,SK-MEL-28 melanoma,> 100 µM
same,TGI,KM12 colon,> 100 µM
same,TGI,UO-31 renal,> 100 µM
same,TGI,MDA-MB-231 breast,> 100 µM
same,TGI,HOP-62 NSCLC,> 100 µM
same,TGI,SF-539 CNS,> 100 µM
same,TGI,SK-MEL-5 melanoma,> 100 µM
same,TGI,ACHN renal,> 100 µM
same,TGI,SNB-19 CNS,> 100 µM
same,TGI,HCT-116 colon,> 100 µM
same,TGI,MALME-3M melanoma,> 100 µM
same,TGI,TK-10 renal,> 100 µM
same,TGI,MDA-MB-435,> 100 µM
same,TGI,NCI-H460 lung,> 100 µM
same,TGI,HCC-2998 colon,> 100 µM
same,TGI,OVCAR-4 ovarian,> 100 µM
same,TGI,786-0 renal,> 100 µM
same,TGI,K-562 leukemia,> 100 µM
same,TGI,OVCAR-5 ovarian,> 100 µM
same,TGI,IGROV1 ovarian,> 100 µM
same,TGI,CAKI-1 renal,> 100 µM
same,TGI,SF-295 CNS,> 100 µM
same,TGI,M14 melanoma,> 100 µM
same,TGI,MDA-N,> 100 µM
COc1ccc(Cc2c(-c3ccc(C)cc3)n[nH]c(=O)c2C2C(=O)N(c3ccccc3)N=C2c2ccccc2)cc1 (stereo unspecified),TGI,RPMI-8226 leukemia,80.3 µM
same,TGI,SK-OV-3 ovarian,> 100 µM
same,TGI,SF-268 CNS,> 100 µM
same,TGI,HT29 colon,> 100 µM
same,TGI,HS 578T breast,82.9 µM
same,TGI,SR leukemia,> 79.3 µM
same,TGI,RXF 393 renal,57 µM
same,TGI,NCI-H23 lung,72.1 µM
same,TGI,A549 NSCLC,84.3 µM
same,TGI,OVCAR-8 ovarian,> 96.6 µM
same,TGI,PC-3 prostate,> 91.8 µM
same,TGI,NCI-H522 lung,> 100 µM
same,TGI,SN12C renal,> 95.6 µM
same,TGI,HOP-92 NSCLC,75.3 µM
same,TGI,MOLT-4 leukemia,> 67.7 µM
same,TGI,MCF7 breast,> 91.3 µM
same,TGI,T-47D breast,> 100 µM
same,TGI,U251 CNS,> 100 µM
same,TGI,A498 renal,65.4 µM
same,TGI,HL-60(TB) leukemia,67.6 µM
same,TGI,LOX IMVI melanoma,46.6 µM
same,TGI,COLO 205 colon,40.3 µM
same,TGI,DU-145 prostate,> 100 µM
same,TGI,OVCAR-3 ovarian,45.8 µM
same,TGI,UACC-62 melanoma,40.4 µM
same,TGI,SW-620 colon,> 100 µM
same,TGI,UACC-257 melanoma,81.2 µM
same,TGI,NCI-H226 lung,81.9 µM
same,TGI,SNB-75 CNS,81.3 µM
same,TGI,EKVX NSCLC,83.1 µM
same,TGI,NCI/ADR-RES ovarian,58 µM
same,TGI,CCRF-CEM leukemia,> 78.8 µM
same,TGI,SK-MEL-28 melanoma,> 90.3 µM
same,TGI,KM12 colon,57.1 µM
same,TGI,UO-31 renal,> 100 µM
same,TGI,MDA-MB-231 breast,> 90.4 µM
same,TGI,HOP-62 NSCLC,> 100 µM
same,TGI,SF-539 CNS,56.1 µM
same,TGI,SK-MEL-5 melanoma,38.9 µM
same,TGI,SK-MEL-2 melanoma,52.5 µM
same,TGI,ACHN renal,> 100 µM
same,TGI,SNB-19 CNS,> 100 µM
same,TGI,HCT-116 colon,46.4 µM
same,TGI,MALME-3M melanoma,65.2 µM
same,TGI,TK-10 renal,87.2 µM
same,TGI,MDA-MB-435,45 µM
same,TGI,NCI-H460 lung,> 89.3 µM
same,TGI,HCT-15 colon,> 100 µM
same,TGI,HCC-2998 colon,79.5 µM
same,TGI,OVCAR-4 ovarian,> 100 µM
same,TGI,786-0 renal,> 100 µM
same,TGI,K-562 leukemia,> 76.6 µM
same,TGI,OVCAR-5 ovarian,> 95.7 µM
same,TGI,IGROV1 ovarian,85.1 µM
same,TGI,CAKI-1 renal,> 88.6 µM
same,TGI,SF-295 CNS,60.8 µM
same,TGI,M14 melanoma,81.8 µM
same,TGI,MDA-N,58.3 µM

# Reference: PubChem BioAssay (NCI)
